What was measured:
[1] = tested on: LNCaP xenograft; assay: Biodistribution of 68Ga-labeled compounds in mice bearing LNCaP xenograft; format: in vivo; conditions: 1 h p.i.
Description: All chemicals and solvents were obtained from commercial sources, and used without further purification. PSMA-targeted peptides were synthesized using a solid phase approach on an AAPPTec (Louisville, KY) Endeavor 90 peptide synthesizer. Purification of peptides was performed on an Agilent 1260 Infinity II Preparative System equipped with a model 1260 Infinity II preparative binary pump, a model 1260 Infinity variable wavelength detector (set at 220 nm), and a 1290 Infinity II preparative open-bed fraction collector. The HPLC column used was a preparative column (Gemini, NX—C18, 5 μ, 50×30 mm) purchased from Phenomenex. The collected HPLC eluates containing the desired peptide were lyophilized using a Labconco (Kansas City, MO) FreeZone 4.5 Plus freeze-drier. Mass analyses were performed using a Waters LC-MS system with an ESI ion source. C18 Sep-Pak cartridges (1 cm^3, 50 mg) were obtained from Waters (Milford, MA). ^68Ga was eluted from an iThemba Labs (Somerset West, South Africa) generator. Radioactivity of ^68Ga-labeled peptides was measured using a Capintec (Ramsey, NJ) CRC®-25R/W dose calibrator, and the radioactivity of mouse tissues collected from biodistribution studies were counted using a Perkin Elmer (Waltham, MA) Wizard2 2480 automatic gamma counter.

[2] = target: PSMA (Homo sapiens, UniProt Q04609); assay: In vitro competitive binding assay
PSMA, sequence (Q04609 whole entry): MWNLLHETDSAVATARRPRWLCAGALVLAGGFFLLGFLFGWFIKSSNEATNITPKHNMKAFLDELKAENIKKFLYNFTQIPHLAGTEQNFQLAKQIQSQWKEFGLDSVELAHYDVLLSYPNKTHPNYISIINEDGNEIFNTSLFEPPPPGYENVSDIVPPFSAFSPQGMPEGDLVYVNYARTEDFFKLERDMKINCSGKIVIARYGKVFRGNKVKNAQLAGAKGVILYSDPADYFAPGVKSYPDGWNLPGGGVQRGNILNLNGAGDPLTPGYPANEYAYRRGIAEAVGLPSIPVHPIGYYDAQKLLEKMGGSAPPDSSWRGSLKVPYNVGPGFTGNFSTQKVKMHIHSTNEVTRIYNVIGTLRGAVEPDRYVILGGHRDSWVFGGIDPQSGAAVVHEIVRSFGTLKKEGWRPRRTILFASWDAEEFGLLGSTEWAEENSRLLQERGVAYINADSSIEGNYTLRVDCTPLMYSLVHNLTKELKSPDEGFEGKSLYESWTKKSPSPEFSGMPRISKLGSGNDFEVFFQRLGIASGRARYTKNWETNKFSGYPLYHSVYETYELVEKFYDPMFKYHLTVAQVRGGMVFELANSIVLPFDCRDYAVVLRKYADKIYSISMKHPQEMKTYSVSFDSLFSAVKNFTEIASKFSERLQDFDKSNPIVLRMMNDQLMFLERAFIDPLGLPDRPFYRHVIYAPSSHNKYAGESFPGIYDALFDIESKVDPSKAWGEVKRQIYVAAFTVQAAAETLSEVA

## O=C(O)CSCC(NC(=O)NC(CNC(=O)CNC(=O)C(Cc1c2ccccc2cc2ccccc12)NC(=O)C1CCC(CNC(=O)CN2CCN(CC(=O)O)CCN(CC(=O)O)CCN(CC(=O)O)CC2)CC1)C(=O)O)C(=O)O.[68Ga] (centres unmarked) [68Ga-CCZ01194]
[1]
  Biodistribution, Adrenal (Avg): 0.65 % ID/g
  Biodistribution, Blood (Avg): 0.98 % ID/g
  Biodistribution, Bone (Avg): 0.14 % ID/g
  Biodistribution, Brain (Avg): 0.03 % ID/g
  Biodistribution, Fat (Avg): 0.27 % ID/g
  Biodistribution, Heart (Avg): 0.27 % ID/g
  Biodistribution, Intestine (Avg): 0.79 % ID/g
  Biodistribution, Kidney (Avg): 7.33 % ID/g
  Biodistribution, LNCaP tumor (Avg): 9.12 % ID/g
  Biodistribution, Liver (Avg): 0.35 % ID/g
  Biodistribution, Lungs (Avg): 0.70 % ID/g
  Biodistribution, Muscle (Avg): 0.14 % ID/g
  Biodistribution, Pancreas (Avg): 0.15 % ID/g
  Biodistribution, Salivary gland (Avg): 0.34 % ID/g
  Biodistribution, Seminal (Avg): 0.13 % ID/g
  Biodistribution, Spleen (Avg): 0.24 % ID/g
  Biodistribution, Stomach (Avg): 0.09 % ID/g
  Biodistribution, Testes (Avg): 0.23 % ID/g
  Biodistribution, Thyroid (Avg): 0.29 % ID/g
  Biodistribution, Urine (Avg): 311.63 % ID/g

## O=C(O)CCCC(NC(=O)NC(CNC(=O)CNC(=O)C(Cc1c2ccccc2cc2ccccc12)NC(=O)C1CCC(CNC(=O)CN2CCN(CC(=O)O)CCN(CC(=O)O)CCN(CC(=O)O)CC2)CC1)C(=O)O)C(=O)O.[68Ga] (centres unmarked) [68Ga-CCZ01198]
[1]
  Biodistribution, Adrenal (Avg): 0.19 % ID/g
  Biodistribution, Blood (Avg): 0.43 % ID/g
  Biodistribution, Bone (Avg): 0.07 % ID/g
  Biodistribution, Brain (Avg): 0.01 % ID/g
  Biodistribution, Fat (Avg): 0.07 % ID/g
  Biodistribution, Heart (Avg): 0.11 % ID/g
  Biodistribution, Intestine (Avg): 0.16 % ID/g
  Biodistribution, Kidney (Avg): 2.18 % ID/g
  Biodistribution, LNCaP tumor (Avg): 4.84 % ID/g
  Biodistribution, Liver (Avg): 0.15 % ID/g
  Biodistribution, Lungs (Avg): 0.32 % ID/g
  Biodistribution, Muscle (Avg): 0.07 % ID/g
  Biodistribution, Pancreas (Avg): 0.08 % ID/g
  Biodistribution, Salivary gland (Avg): 0.12 % ID/g
  Biodistribution, Seminal (Avg): 0.47 % ID/g
  Biodistribution, Spleen (Avg): 0.12 % ID/g
  Biodistribution, Stomach (Avg): 0.03 % ID/g
  Biodistribution, Testes (Avg): 0.14 % ID/g
  Biodistribution, Thyroid (Avg): 0.13 % ID/g
  Biodistribution, Urine (Avg): 384.68 % ID/g

## O=C(O)CC[C@H](NC(=O)N[C@@H](C[C@@H]1C[C@H]1CNC(=O)[C@H](Cc1c2ccccc2cc2ccccc12)NC(=O)[C@H]1CC[C@H](CNC(=O)CN2CCN(CC(=O)O)CCN(CC(=O)O)CCN(CC(=O)O)CC2)CC1)C(=O)O)C(=O)O [ADZ-4-101]
[2]
  Ki: 2.42 nM

## O=C(O)CCC[C@H](OC(=O)N[C@@H](CCCCNC(=O)[C@H](Cc1c2ccccc2cc2ccccc12)NC(=O)[C@H]1CC[C@H](CNC(=O)CN2CCN(CC(=O)O)CCN(CC(=O)O)CCN(CC(=O)O)CC2)CC1)C(=O)O)C(=O)O [AR-2-050-1, DOTA-PSMA-Aad-carbamate]
[2]
  Ki: 8.99 nM

## O=C(O)CCC[C@@H](OC(=O)N[C@@H](CCCCNC(=O)[C@H](Cc1c2ccccc2cc2ccccc12)NC(=O)[C@H]1CC[C@H](CNC(=O)CN2CCN(CC(=O)O)CCN(CC(=O)O)CCN(CC(=O)O)CC2)CC1)C(=O)O)C(=O)O [AR-2-050-2, DOTA-PSMA-Aad-carbamate]
[2]
  Ki: 240 nM

## O=C(O)CCC[C@H](OC(=O)N[C@@H](CCCCNC(=O)[C@H](Cc1c2ccccc2cc2ccccc12)NC(=O)[C@H]1CC[C@H](CNC(=O)CCc2ccc(O)c(CN(CCN(CC(=O)O)Cc3cc(CCC(=O)O)ccc3O)CC(=O)O)c2)CC1)C(=O)O)C(=O)O.[68Ga] [^68Ga-AR-113-1]
[1]
  Biodistribution, Adrenal (Avg): 1.22 % ID/g
  Biodistribution, Blood (Avg): 2.42 % ID/g
  Biodistribution, Bone (Avg): 0.34 % ID/g
  Biodistribution, Brain (Avg): 0.05 % ID/g
  Biodistribution, Fat (Avg): 0.56 % ID/g
  Biodistribution, Heart (Avg): 0.85 % ID/g
  Biodistribution, Intestine (Avg): 1.36 % ID/g
  Biodistribution, Kidney (Avg): 27.16 % ID/g
  Biodistribution, LNCaP tumor (Avg): 11.86 % ID/g
  Biodistribution, Lacrimal (Avg): 0.13 % ID/g
  Biodistribution, Liver (Avg): 1.31 % ID/g
  Biodistribution, Lungs (Avg): 1.93 % ID/g
  Biodistribution, Muscle (Avg): 0.49 % ID/g
  Biodistribution, Pancreas (Avg): 0.34 % ID/g
  Biodistribution, Salivary gland (Avg): 1.05 % ID/g
  Biodistribution, Spleen (Avg): 0.61 % ID/g
  Biodistribution, Stomach (Avg): 0.22 % ID/g
  Biodistribution, Testes (Avg): 0.79 % ID/g
  Biodistribution, Urine (Avg): 237.55 % ID/g

## O=C(O)CSCC(NC(=O)NC(Cc1cn(CCNC(=O)C(Cc2c3ccccc3cc3ccccc23)NC(=O)C2CCC(CNC(=O)CN3CCN(CC(=O)O)CCN(CC(=O)O)CCN(CC(=O)O)CC3)CC2)nn1)C(=O)O)C(=O)O.[68Ga] (centres unmarked) [^68Ga-CCZ01186]
[1]
  Biodistribution, Adrenal (Avg): 0.29 % ID/g
  Biodistribution, Blood (Avg): 0.72 % ID/g
  Biodistribution, Bone (Avg): 0.13 % ID/g
  Biodistribution, Brain (Avg): 0.02 % ID/g
  Biodistribution, Fat (Avg): 0.16 % ID/g
  Biodistribution, Heart (Avg): 0.57 % ID/g
  Biodistribution, Intestine (Avg): 0.08 % ID/g
  Biodistribution, Kidney (Avg): 2.20 % ID/g
  Biodistribution, LNCaP tumor (Avg): 0.89 % ID/g
  Biodistribution, Liver (Avg): 0.23 % ID/g
  Biodistribution, Lungs (Avg): 0.21 % ID/g
  Biodistribution, Muscle (Avg): 0.23 % ID/g
  Biodistribution, Pancreas (Avg): 0.16 % ID/g
  Biodistribution, Salivary gland (Avg): 0.40 % ID/g
  Biodistribution, Seminal (Avg): 6.65 % ID/g
  Biodistribution, Spleen (Avg): 0.34 % ID/g
  Biodistribution, Stomach (Avg): 0.14 % ID/g
  Biodistribution, Testes (Avg): 0.17 % ID/g
  Biodistribution, Thyroid (Avg): 2.49 % ID/g
  Biodistribution, Urine (Avg): 439.81 % ID/g

## O=C(O)CSCC(NC(=O)NC(Cc1ccc(NC(=O)C(Cc2c3ccccc3cc3ccccc23)NC(=O)C2CCC(CNC(=O)CN3CCN(CC(=O)O)CCN(CC(=O)O)CCN(CC(=O)O)CC3)CC2)cc1)C(=O)O)C(=O)O.[68Ga] (centres unmarked) [^68Ga-CCZ01188]
[1]
  Biodistribution, Adrenal (Avg): 0.98 % ID/g
  Biodistribution, Blood (Avg): 3.91 % ID/g
  Biodistribution, Bone (Avg): 0.23 % ID/g
  Biodistribution, Brain (Avg): 0.07 % ID/g
  Biodistribution, Fat (Avg): 0.62 % ID/g
  Biodistribution, Heart (Avg): 1.03 % ID/g
  Biodistribution, Intestine (Avg): 0.56 % ID/g
  Biodistribution, Kidney (Avg): 4.02 % ID/g
  Biodistribution, LNCaP tumor (Avg): 1.43 % ID/g
  Biodistribution, Liver (Avg): 0.81 % ID/g
  Biodistribution, Lungs (Avg): 2.15 % ID/g
  Biodistribution, Muscle (Avg): 0.41 % ID/g
  Biodistribution, Pancreas (Avg): 0.38 % ID/g
  Biodistribution, Salivary gland (Avg): 1.56 % ID/g
  Biodistribution, Seminal (Avg): 0.85 % ID/g
  Biodistribution, Spleen (Avg): 0.61 % ID/g
  Biodistribution, Stomach (Avg): 0.19 % ID/g
  Biodistribution, Testes (Avg): 0.82 % ID/g
  Biodistribution, Thyroid (Avg): 0.67 % ID/g
  Biodistribution, Urine (Avg): 367.12 % ID/g

## O=C(O)CCCC(NC(=O)NC(COCCNC(=O)C(Cc1c2ccccc2cc2ccccc12)NC(=O)C1CCC(CNC(=O)CN2CCN(CC(=O)O)CCN(CC(=O)O)CCN(CC(=O)O)CC2)CC1)C(=O)O)C(=O)O.[68Ga] (centres unmarked) [^68Ga-CCZ02011]
[1]
  Biodistribution, Adrenal (Avg): 0.36 % ID/g
  Biodistribution, Blood (Avg): 0.58 % ID/g
  Biodistribution, Bone (Avg): 0.15 % ID/g
  Biodistribution, Brain (Avg): 0.02 % ID/g
  Biodistribution, Fat (Avg): 0.12 % ID/g
  Biodistribution, Heart (Avg): 0.18 % ID/g
  Biodistribution, Intestine (Avg): 0.40 % ID/g
  Biodistribution, Kidney (Avg): 4.10 % ID/g
  Biodistribution, LNCaP tumor (Avg): 14.08 % ID/g
  Biodistribution, Lacrimal (Avg): 0.33 % ID/g
  Biodistribution, Liver (Avg): 0.27 % ID/g
  Biodistribution, Lungs (Avg): 0.43 % ID/g
  Biodistribution, Muscle (Avg): 0.15 % ID/g
  Biodistribution, Pancreas (Avg): 0.22 % ID/g
  Biodistribution, Salivary gland (Avg): 0.27 % ID/g
  Biodistribution, Seminal (Avg): 11.24 % ID/g
  Biodistribution, Spleen (Avg): 0.23 % ID/g
  Biodistribution, Stomach (Avg): 0.07 % ID/g
  Biodistribution, Testes (Avg): 0.51 % ID/g
  Biodistribution, Thyroid (Avg): 0.16 % ID/g
  Biodistribution, Urine (Avg): 343.93 % ID/g

## O=C(O)CCCC(NC(=O)NC(CCCONC(=O)C(Cc1c2ccccc2cc2ccccc12)NC(=O)C1CCC(CNC(=O)CN2CCN(CC(=O)O)CCN(CC(=O)O)CCN(CC(=O)O)CC2)CC1)C(=O)O)C(=O)O.[68Ga] (centres unmarked) [^68Ga-CCZ02018]
[1]
  Biodistribution, Adrenal (Avg): 0.53 % ID/g
  Biodistribution, Blood (Avg): 0.67 % ID/g
  Biodistribution, Bone (Avg): 0.13 % ID/g
  Biodistribution, Brain (Avg): 0.03 % ID/g
  Biodistribution, Fat (Avg): 0.17 % ID/g
  Biodistribution, Heart (Avg): 0.18 % ID/g
  Biodistribution, Intestine (Avg): 0.25 % ID/g
  Biodistribution, Kidney (Avg): 6.91 % ID/g
  Biodistribution, LNCaP tumor (Avg): 18.88 % ID/g
  Biodistribution, Liver (Avg): 0.21 % ID/g
  Biodistribution, Lungs (Avg): 0.58 % ID/g
  Biodistribution, Muscle (Avg): 0.10 % ID/g
  Biodistribution, Pancreas (Avg): 0.13 % ID/g
  Biodistribution, Salivary gland (Avg): 0.22 % ID/g
  Biodistribution, Seminal (Avg): 0.27 % ID/g
  Biodistribution, Spleen (Avg): 0.24 % ID/g
  Biodistribution, Stomach (Avg): 0.07 % ID/g
  Biodistribution, Testes (Avg): 0.22 % ID/g
  Biodistribution, Thyroid (Avg): 0.20 % ID/g
  Biodistribution, Urine (Avg): 613.72 % ID/g

From patent US20240018110A1, “RADIOLABELED COMPOUNDS TARGETING THE PROSTATE-SPECIFIC MEMBRANE ANTIGEN” (THE UNIVERSITY OF BRITISH COLUMBIA, priority 2020, published 2024)
